Experimental data taken from US7063946B2, “Methods, reagents, kits and apparatus for protein function analysis” (Meso Scale Technologies, LLC., priority 2001, dated 2006).

Assays:
Type in all cases: biochemical
Tek = target: T1, Tek (Mus musculus, UniProt Q02858); test: Kinase inhibitor profiling, pEY phosphorylation
T1 construct: specificity data for proteins generated from a library of eighteen full-length clones; host or cells: rabbit reticulocyte lysate, TnT coupled in vitro transcription/translation (cell-free)

HCK = target: T2, HCK (Homo sapiens, UniProt P08631); test: Kinase inhibitor profiling, pEY phosphorylation
T2 construct: specificity data for proteins generated from a library of eighteen full-length clones; host or cells: rabbit reticulocyte lysate, TnT coupled in vitro transcription/translation (cell-free)

LCK = target: T3, LCK (Homo sapiens, UniProt P06239); test: Kinase inhibitor profiling, autophosphorylation
T3 construct: specificity data for proteins generated from a library of eighteen full-length clones; host or cells: rabbit reticulocyte lysate, TnT coupled in vitro transcription/translation (cell-free)
Experimental: To promote autophosphorylation in these immobilized and purified proteins, Mn++ ions were added in a 50 μl reaction containing 5 mM MgCl2, 5 mM MnCl2, 100 μM ATP, 25 mM Tris-HCl buffer pH 7.4, 0.05 mM Na3VO4, 0.004% TritonX-100, 2 mM DTT and EDTA-free protease inhibitor (Roche Molecular Biochemicals). This mixture was incubated with shaking at room temperature overnight to allow autophosphorylation. Following this incubation, wells were washed 2 times with TT-buffer and 2 times with water. Following this step, 50 ng Sulfo-TAG labeled anti-phosphotyrosine in buffer containing 25 mM Tris-HCl buffer pH 7.4, 5 mM MgCl2, 0.05 mM Na3VO4, 0.004% TritonX-100, 2 mM DTT and 0.05% IgG in a final volume of 50 μl was added followed by incubation at room temperature for 45 min. The unbound reagents were removed by one time washing with water, and the TAG label was detected in presence of 150 μl IPR assay buffer (0.4 mM Gly—Gly buffer, pH 7.8, 1 mM EDTA, 0.1 M TPA). The ECL signals were measured using an imaging plate reader.
The unbound components of the translation reaction (including any endogenous kinases) were removed by 3 washes with TT-buffer (25 mM Tris-HCl buffer pH 7.4 and 0.004% Triton), two five minutes washes with high-salt wash buffer (25 mM Tris-HCl buffer pH 7.4, 0.004% Triton, 1M NaCl and 5 mM DTT) and 3 washes with TT-buffer. […] The mixture was incubated at room temperature for 10 mm before starting the kinase reaction by adding 25 μl of 200 μM ATP in buffer A. This mixture was incubated with intermittent shaking at room temperature for 2 hours to overnight to allow (a) phosphorylation of the pEY substrate and (b) autophosphorylation of the immobilized kinases.
The ECL signal in control wells produced by tyrosine kinases was compared to the wells containing inhibitor compounds.

T3 sequence (P06239 whole entry): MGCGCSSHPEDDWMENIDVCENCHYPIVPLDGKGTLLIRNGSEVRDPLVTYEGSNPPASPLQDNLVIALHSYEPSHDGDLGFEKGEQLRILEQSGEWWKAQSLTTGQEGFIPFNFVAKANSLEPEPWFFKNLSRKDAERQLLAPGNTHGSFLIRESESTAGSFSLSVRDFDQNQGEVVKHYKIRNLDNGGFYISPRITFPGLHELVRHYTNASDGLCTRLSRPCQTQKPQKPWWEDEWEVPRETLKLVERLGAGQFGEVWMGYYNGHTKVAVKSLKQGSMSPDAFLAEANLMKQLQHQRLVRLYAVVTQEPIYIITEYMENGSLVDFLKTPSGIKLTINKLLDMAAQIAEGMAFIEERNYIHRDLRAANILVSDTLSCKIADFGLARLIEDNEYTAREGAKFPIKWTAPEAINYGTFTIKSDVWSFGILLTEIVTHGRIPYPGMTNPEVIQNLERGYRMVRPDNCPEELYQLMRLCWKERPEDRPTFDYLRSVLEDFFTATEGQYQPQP
T1 sequence (Q02858 23-1122): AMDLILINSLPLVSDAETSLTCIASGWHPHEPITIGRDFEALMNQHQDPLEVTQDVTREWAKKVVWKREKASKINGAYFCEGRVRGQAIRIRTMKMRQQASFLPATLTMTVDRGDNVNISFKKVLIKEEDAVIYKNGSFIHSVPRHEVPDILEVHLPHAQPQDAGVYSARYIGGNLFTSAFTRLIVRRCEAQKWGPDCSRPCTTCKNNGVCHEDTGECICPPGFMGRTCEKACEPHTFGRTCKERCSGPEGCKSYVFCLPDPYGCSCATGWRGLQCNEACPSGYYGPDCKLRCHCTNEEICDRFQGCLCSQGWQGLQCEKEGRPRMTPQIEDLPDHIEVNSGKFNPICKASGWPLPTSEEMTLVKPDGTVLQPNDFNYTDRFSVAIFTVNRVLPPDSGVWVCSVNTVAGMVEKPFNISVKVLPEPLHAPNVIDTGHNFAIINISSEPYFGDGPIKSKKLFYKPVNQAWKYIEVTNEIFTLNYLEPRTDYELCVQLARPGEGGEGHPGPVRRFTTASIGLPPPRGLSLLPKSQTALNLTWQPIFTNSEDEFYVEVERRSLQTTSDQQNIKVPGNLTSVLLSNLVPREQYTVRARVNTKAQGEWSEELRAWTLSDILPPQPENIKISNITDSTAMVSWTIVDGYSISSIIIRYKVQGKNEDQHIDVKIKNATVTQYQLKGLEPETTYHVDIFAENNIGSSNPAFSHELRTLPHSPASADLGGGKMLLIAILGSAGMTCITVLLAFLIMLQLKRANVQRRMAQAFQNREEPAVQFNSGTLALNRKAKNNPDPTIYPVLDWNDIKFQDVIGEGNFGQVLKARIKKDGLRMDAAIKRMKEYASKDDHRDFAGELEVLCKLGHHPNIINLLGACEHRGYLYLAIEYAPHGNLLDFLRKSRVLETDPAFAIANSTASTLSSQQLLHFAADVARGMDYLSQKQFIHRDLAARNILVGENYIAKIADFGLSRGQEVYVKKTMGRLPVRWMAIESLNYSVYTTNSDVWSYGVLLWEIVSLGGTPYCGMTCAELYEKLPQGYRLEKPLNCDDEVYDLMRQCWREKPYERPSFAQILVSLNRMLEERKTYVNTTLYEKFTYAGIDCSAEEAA
T2 sequence (P08631 whole entry): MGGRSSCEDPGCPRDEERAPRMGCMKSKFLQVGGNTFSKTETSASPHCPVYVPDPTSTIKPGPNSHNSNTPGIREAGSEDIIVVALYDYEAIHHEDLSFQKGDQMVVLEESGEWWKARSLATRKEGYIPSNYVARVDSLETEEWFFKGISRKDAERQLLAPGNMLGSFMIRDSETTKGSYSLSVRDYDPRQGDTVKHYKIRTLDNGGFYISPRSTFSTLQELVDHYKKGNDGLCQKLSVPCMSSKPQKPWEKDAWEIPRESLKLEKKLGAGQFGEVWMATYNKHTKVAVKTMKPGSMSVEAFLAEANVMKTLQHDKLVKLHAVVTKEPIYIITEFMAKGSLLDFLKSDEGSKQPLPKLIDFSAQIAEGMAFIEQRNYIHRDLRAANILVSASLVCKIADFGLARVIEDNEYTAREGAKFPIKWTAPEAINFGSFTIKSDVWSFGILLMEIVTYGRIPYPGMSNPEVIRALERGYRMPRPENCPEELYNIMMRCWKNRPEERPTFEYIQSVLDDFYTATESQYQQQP

Row | Molecule | Inhibition specificity towards pEY phosphorylation at 10X IC50, Tek (Tek) | Inhibition specificity towards pEY phosphorylation at 10X IC50, HCK (HCK) | Inhibition specificity towards Autophosphorylation at 10X IC50, LCK (LCK)
1 | COC(=O)c1ccc(NCc2cc(O)ccc2O)cc1 [AG-957] | L (low inhibition (“L”=between 50–75% of the activity remaining)) |  | 
2 | CC(C)(C)c1cc(C=C(C#N)C#N)cc(Br)c1O [AG-1024] | L (low inhibition (“L”=between 50–75% of the activity remaining)) |  | 
3 | Cc1cc2ncc(-c3ccc(O)c(O)c3)nc2cc1C [AG-1433] | M (medium inhibition (“M”=between 25 to 50% of the activity remaining)) | M (medium inhibition (“M”=between 25 to 50% of the activity remaining)) | H (high inhibition (“H”=less than 25% of the activity remaining))
4 | COc1c(C=O)c(O)cc2c1C(=O)c1ccccc1C2=O [Damnacanthal] | M (medium inhibition (“M”=between 25 to 50% of the activity remaining)) | H (high inhibition (“H”=less than 25% of the activity remaining)) | 
5 | COc1cc2ncnc(Nc3ccc(Cl)cc3F)c2cc1OC [VEGFR inhibitor] |  |  | L (low inhibition (“L”=between 50–75% of the activity remaining))
6 | COc1cc2ncnc(Nc3ccc(O)cc3)c2cc1OC [WHI-P131] | L (low inhibition (“L”=between 50–75% of the activity remaining)) | L (low inhibition (“L”=between 50–75% of the activity remaining)) | M (medium inhibition (“M”=between 25 to 50% of the activity remaining))
7 | Erbstatin analog |  |  | L (low inhibition (“L”=between 50–75% of the activity remaining))
